# Experimental data taken from patent US8257714B2, “Compositions and methods for immunotherapy of cancer and infectious diseases” (priority 2003, dated 2012).
# Ends that are not written are not given here.
# B1: KC: chemokine (protein, UniProt P12850 25-96, looked up)
# Growth-regulated alpha protein: APIANELRCQCLQTMAGIHLKNIQSLKVLPSGPHCTQTEVIATLKNGREACLDPEAPLVQKIVQKMLKGVPK
# B2: MIP-1 α: chemokine (protein, UniProt P10147 24-92, looked up)
# C-C motif chemokine 3: SLAADTPTACCFSYTSRQIPQNFIADYFETSSQCSKPGVIFLTKRSRQVCADPSEEWVQKYVSDLELSA
# B3: IL-2: Interleukin 2 (protein, UniProt P04351 21-169, looked up)
# Interleukin-2: APTSSSTSSSTAEAQQQQQQQQQQQQHLEQLLMDLQELLSRMENYRNLKLPRMLTFKFYLPKQATELKDLQCLEDELGPLRHVLDLTQSKSFQLEDAENFISNIRVTVVKLKGSDNTFECQFDDESATVVDFLRRWIAFCQSIISTSPQ
# B4: IL-11: interleukin (protein, UniProt P20809 22-199, looked up)
# Interleukin-11: PGPPPGPPRVSPDPRAELDSTVLLTRSLLADTRQLAAQLRDKFPADGDHNLDSLPTLAMSAGALGALQLPGVLTRLRADLLSYLRHVQWLRRAGGSSLKTLEPELGTLQARLDRLLRRLQLLMSRLALPQPPPDPPAPPLAPPSSAWGGIRAAHAILGGLHLTLDWAVRGLLLLKTRL
# B5: IL-7: interleukin (protein, UniProt P10168 26-154, looked up)
# Interleukin-7: ECHIKDKEGKAYESVLMISIDELDKMTGTDSNCPNNEPNFFRKHVCDDTKEAAFLNRAARKLKQFLKMNISEEFNVHLLTVSQGTQTLVNCTSKEEKNVKEQKKNDACFLKRLLREIKTCWNKILKGSI
# B6: IL-4: interleukin (protein, UniProt P07750 21-140, looked up)
# Interleukin-4: HIHGCDKNHLREIIGILNEVTGEGTPCTEMDVPNVLTATKNTTESELVCRASKVLRIFYLKHGKTPCLKKNSSVLMELQRLFRAFRCLDSSISCTMNESKSTSLKDFLESLKSIMQMDYS
# B7: IL-18: interleukin (protein, UniProt P70380 36-192, looked up)
# Interleukin-18: NFGRLHCTTAVIRNINDQVLFVDKRQPVFEDMTDIDQSASEPQTRLIIYMYKDSEVRGLAVTLSVKDSKMSTLSCKNKIISFEEMDPPENIDDIQSDLIFFQKRVPGHNKMEFESSLYEGHFLACQKEDDAFKLILKKKDENGDKSVMFTLTNLHQS
# Columns and labels:
# Mouse sarcoma 180 cells = experiment: NK cell-mediated cytotoxicity (NK-CMC) assay, LGL/S180 co-culture; assay type: cell-based; conditions: wide range of concentrations, presence and absence of IL-2 (125 U/ml)
# Experimental: In one embodiment, a NK cell assay is used to assess ARP-induced cytotoxic activity of NK-like cells (see section 12.2). Briefly, by way of example but not limitation, a NK cell assay can be carried out as follows: large granular lymphocytes (LGLs) are co-cultured with tumor cells at various ratios (effector to target ratio) for four days at 37° C., 5% CO2. […] The culture is terminated at the end of day 4 and vitally stained using a MTT cell viability quantification assay (see Mossman, T. J. Immunol. Methods 65: 55 (1983); and Sigma Chemical MTT (M5655) product application note). Culture media is aspirated and the remaining cells are washed and replaced with DMEM/F12 plus FCS, containing MTT. The cells are further incubated for 4-5 hours at 37° C. Absorbance is measured with the aid of a plate reader. Decreased absorbance indicated a decrease in the number of viable cells per well (i.e., cytotoxicity). Absorbance is measured again after the MTT is solubilized by replacement of the medium with 2-propanol containing HCl, which gives a uniform color throughout the well. NK-inducing activity is calculated relative to negative (PBS/BSA) and positive (internal standard) controls.
# Spleens (10-15 per experiment) were aseptically removed from male Balb/C mice 6-10 weeks of age. Splenocytes were “squeezed” out of spleens using 2 sterile glass microscope slides. Cells were collected in approximately 10 ml of DMEM/F 12 containing 10% fetal calf serum (FCS) and gentamicin (50 μg/ml). Single cell suspensions were generated by passing collected cells through a 70 μm nylon mesh screen. After washing the cell pellet once with PBS (centrifuged at 675×g for 5 min), red blood cells were lysed by brief hypotonic shock (i.e. exposure to sterile distilled, deionized water, followed immediately with appropriate volumes of 10×PBS to return to isotonicity). Remaining cells were centrifuged and resuspended in DMEM/F12+10% FCS and transferred to 75 cm^2 flasks each containing 25 mls DMEM/F12+10% FCS (cells from 5 spleens per flask). The cells were incubated for 60 min. at 37° C. to selectively remove readily adherent cells (mainly fibroblasts and macrophages). After the incubation, the flasks were gently shaken and the non-adherent cells were removed, pelleted by centrifugation, and resuspended in DMEM/F12 (no supplements) (1.0 mL/10^8 cells). A 1.0 mL volume of these cell suspensions were carefully layered onto a 70%/60%/40% (2 mL/4 mL/4 mL) Percoll™ gradients in 15 ml centrifuge tubes and centrifuged for 30 min at 675×G. The cells which sediment at the 40/60 interface represent primarily large granular lymphocytes (LGLs), enriched with NK cells. These cells were carefully removed with a pasteur pipet, centrifuged, washed once with PBS and resuspended in approximately 5 mL DMEM/F12 supplemented with gentamicin (50 μg/mL) and 10% fetal calf serum. Cell counts and appropriate dilutions of LGL cells were made with these cells, as described below. For convenience this LGL cell preparation is interchangeably referred to as NK cells.
# Mouse sarcoma 180 cells were seeded into 96 well plates at a density of 5×10^3 cells per well in 100 μl DMEM/F12, supplemented with 10% FCS and gentamicin (50 μg/mL). […] NK cells were added in 100 μL of supplemented DMEM/F12 at designated densities: 0 NK cells/well; 5×10^4 NK cells/well (1:10 target/effector ratio); 1.25×10^5 NK cells/well (1:25 target/effector ratio); 2.5×10^5 NK cells/well (1:50 target/effector ratio); and, 5×10^5 NK cells/well (1:100 target/effector ratio). (Note: routinely, only the 1:50 and 1:100 ratios were used for screening purposes. IL2 was added as a media supplement with final concentration of 125 U/mL.). Co-cultures were incubated for 4 days at 37° C., 5% CO2, and terminated and vitally stained using a MTT cell viability quantification assay (see Mossman, T. J. Immunol. Methods 65:55 (1983); and Sigma Chemical MTT (M5655) product application note). […]
# [1] = tested on: freshly isolated dendritic cells (CD11c+ splenocytes); experiment: Dendritic cell (DC) assay: IL12 release from freshly isolated dendritic cells; assay type: cell-based, BALB/c mice; conditions: for DC mIL12 Release: tested for synergism and inhibition
# Text: In a preferred embodiment, dendritic cell (DC) assay is used to follow interleukin-12 (IL-12) release from freshly isolated dendritic cells as an index of DC activation (see section 12.3). […] Briefly, by way of example but not limitation, a DC assay can be carried out as follows: freshly isolated dendritic cells (CD11c^+ splenocytes, e.g., isolated from the spleens of BALB/c mice within ten hours of assaying the activity) are suspended at a density of 0.5×10^6 cells per mL in cytokine supplemented culture media (GM-CSF, 1.0 ng/ml; IL-4, 1.0 ng/ml; IFNg, 3.0 ng/ml; anti mouse CD40, 0.5 mg/ml). […] Mouse IL-12 release from the dendritic cells (CD11c^+ splenocytes) is then measured using ELISA.
# To follow the activity in semi-purified preparations of BEX, an assay which follows IL12 release from freshly isolated dendritic cells (DCs) as an index of DC activation was developed. This activity is highly correlated with both NK-CMC in vitro and anti-tumor activity in vivo.
# DCs were isolated from the spleens of male BALB/c mice 8-12 weeks of age (Harlan Bioproducts for Science, Indianapolis, Ind.), using the magnetic assisted cell separation (MACS) system purchased from Miltenyi Biotech. In summary: Spleens were aseptically removed from mice and placed into a petri dish containing 5 mL holding media (DMEM/F12 supplemented with 10% FCS and antibiotics). Each spleen was then injected with ˜0.5 mls collagenase D solution (1 mg/mL in 10 mM Hepes-NaOH, pH 7.4, 150 mM NaCl, 5 mM MgCl2, 1.8 mM CaCl2), placed into 5-10 mL collagenase D, cut into 5-6 pieces and incubated at 37° C. for 45-60 min. Collagenase-digested spleens were then processed with glass slides and passed through a 70 μm nylon mesh cell strainer. After the strainer was flushed with 40 mL culture media, cells were centrifuged (8 min @ 200×G), suspended in 1 mL PBS and subjected to red blood cell lysis by incubating the cell suspension for 5 min at room temperature in 10 mL lysis buffer (155 mM NH4Cl, 10 mM KHCO3, 0.1 mM EDTA), followed by dilution in PBS to 50 mL and centrifugation (8 min @ 200×g). The splenocytes were then suspended in 10 mL MACS buffer (PBS pH 7.2, supplemented with 2 mM EDTA and 0.5% BSA), passed through a 40 μm nylon mesh cell strainer which was flushed with 40 mL MACS buffer. A preliminary cell count was taken at this time, prior to centrifugation (8 min @ 200×G). The splenocytes were suspended at a density of 10^8 cells per 400 μL MACS buffer. Paramagnetic MicroBeads coated with anti-CD11c^+ antibody were mixed with the splenocyte suspension (100 μL per 10^8 cells), incubated at +4° C. for 15 min, washed, suspended in 1.0 mL MACS buffer and passed through a MS+ separation column placed within a strong magnetic field. CD11c^+ cells were retained in the column whereas CD11c^− cells were washed off the column as the flow-through cell fraction. CD11c^+ cells were then collected by removing the column out of the magnetic field and flushing the column twice with 1 mL of MACS buffer. CD11c^+ cells were washed once with culture media and suspended at a density of 0.5×10^6 cells per mL in cytokine supplemented culture media {DMEM/F12 supplemented with 10% FCS and gentamicin containing mouse GM-CSF (1 ng/mL), mouse IL-4 (1 ng/mL), mouse IFNγ (3 ng/mL) and anti mouse CD40 (0.5 mg/mL)}.
# Mouse IL12 release from CD11c^+ splenocytes was measured using ELISA. Briefly, CD11c+ cell culture supernatants were sampled following an overnight incubation (usually 15-18 hrs). Media samples ([…]) were added to ELISA plates coated with anti mouse IL12 (p70) capture antibody (R&D #MAB419; 250 ng in 100 μL per well) and incubated either at 37° C. or room temperature for 2 hrs. The ELISA plates were washed extensively with wash buffer after which 100 μL per well of detection antibody/detection reagent (biotinylated anti-mouse IL12; R&D #BAF419 at 50 ng/mL and streptavidin-HRP) was added. […]
Molecule,NK-CMC Activity (Mouse sarcoma 180 cells),DC mIL12 Release [1],also measured
JE/MCP-1: chemokine,−,,
"Cecropin A: defensin / anti-microbial peptide (KWKLFKKIEKVGQNIRDGIIKAGPAVAVVGQATQIAK; UniProt P01507 27-63, looked up)",−,,
Cecropin P1,−,,
TGF β,−,−,
Magainin I,−,,
FGFbasic: growth factor,−,−,
IL-15: interleukin,−,,
IFN α,−,,
N[C@@H](CCC(=O)N[C@@H](CS)C(=O)NCC(=O)O)C(=O)O [reduced glutathione],,,effect on responses in the DC assay ([1]; excess added to the assay system): lowered the responses
truncated molecule lacking GEADTQAWDTSVREWLVDT: E. tenella ARP with start codon moved to the 21th position (listed as Eimeria tenella),,,DC-activity compared to full-length ARP ([1]; recombinant E. tenella ARP variants): activity was lost
Magainin II,−,,
TGF α: growth factor,−,,
IL-5: interleukin,−,−,
IL-1 β: interleukin,−^3,−,
IL-6: interleukin,−,−,
TNF α,,−,
"Cecropin B: defensin / anti-microbial peptide (KWKVFKKIEKMGRNIRNGIVKAGPAIAVLGEAKAL; ends and bridges not checked; UniProt P01508 27-61, looked up)",−,,
B1,−,,
B2,−,,
B3,,−,
B4,−,,
B5,−,,
B6,−,,
B7,,−,
